The values below come from US8242174B2 (priority 2007, dated 2012).

The structures appear in SMILES notation. Counter-ions that a name gives are not always drawn.

This assay deals with Lethal factor protease (Bacillus anthracis, UniProt P15917). Briefly: biochemical.
Sequence of Lethal factor protease (P15917 34-809 limits assumed): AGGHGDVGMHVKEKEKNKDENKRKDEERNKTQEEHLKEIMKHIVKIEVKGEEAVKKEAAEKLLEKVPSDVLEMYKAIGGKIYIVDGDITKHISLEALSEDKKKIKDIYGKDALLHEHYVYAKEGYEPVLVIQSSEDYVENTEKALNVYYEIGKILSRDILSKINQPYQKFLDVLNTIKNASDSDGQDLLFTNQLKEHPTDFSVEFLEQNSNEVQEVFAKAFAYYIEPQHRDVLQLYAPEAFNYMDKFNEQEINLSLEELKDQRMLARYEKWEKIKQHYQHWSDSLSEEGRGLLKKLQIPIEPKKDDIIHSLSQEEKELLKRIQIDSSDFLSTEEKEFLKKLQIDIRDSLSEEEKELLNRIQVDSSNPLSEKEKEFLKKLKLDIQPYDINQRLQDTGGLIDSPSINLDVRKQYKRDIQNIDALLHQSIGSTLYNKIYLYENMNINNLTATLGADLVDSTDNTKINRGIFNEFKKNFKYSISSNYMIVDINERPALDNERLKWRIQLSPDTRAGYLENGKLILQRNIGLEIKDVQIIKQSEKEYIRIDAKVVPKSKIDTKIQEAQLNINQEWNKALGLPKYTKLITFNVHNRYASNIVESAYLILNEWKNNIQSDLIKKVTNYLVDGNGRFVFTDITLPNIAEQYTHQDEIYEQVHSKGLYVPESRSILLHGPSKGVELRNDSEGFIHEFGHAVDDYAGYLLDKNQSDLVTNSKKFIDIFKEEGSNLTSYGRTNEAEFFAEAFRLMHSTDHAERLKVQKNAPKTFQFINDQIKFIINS
By Ki is commonly meant the equilibrium dissociation constant of an inhibitor or competing ligand from its target. A lower Ki goes with higher affinity. Molecule `CCCCC(Nc1cccc(Cl)c1)C(=O)NO` (centres unmarked) [Compound 167257, 2-(3-Chloro-phenylamino)-hexanoic acid hydroxyamide] displayed an inhibition constant (Ki) of 61500 nM. The molecule `Cc1cc(CN(CCCC[C@@H](Nc2cc(C)c(F)c(C)c2)C(=O)NO)Cc2ccc(F)c(C)c2)ccc1F` [Compound 167933, (R)-6-[Bis-(4-fluoro-3-methyl-benzyl)-amino]-2-(4-fluoro-3,5-dimethyl-phenylamino)-hexanoic acid hydroxyamide] displayed an inhibition constant Ki of 1900 nM. Turning to `CCCCC(Nc1cc(OC)cc(OC)c1)C(=O)NO` (centres unmarked) [Compound 167772, 2-(3,5-Dimethoxy-phenylamino)-hexanoic acid hydroxyamide], the affinity corresponds to a Ki of 257000 nM. With `Cc1cc(N[C@H](COCc2ccccc2)C(=O)NO)cc(C)c1F` [Compound 167379, (R)-3-Benzyloxy-2-(4-fluoro-3,5-dimethyl-phenylamino)-N-hydroxy-propionamide], the Ki was 1440 nM. In turn, `Cc1cc(N[C@H](CCCCNCc2ccc(F)nc2)C(=O)NO)ccc1F` [Compound 167978, (R)-2-(4-Fluoro-3-methyl-phenylamino)-6-[(6-fluoro-pyridin-3-ylmethyl)-amino]-hexanoic acid hydroxyamide] returned an inhibition constant (Ki) of 260 nM. In the case of `CCCCC(Nc1cccc(CC)c1)C(=O)NO` (centres unmarked) [Compound 167201, 2-(3-Ethyl-phenylamino)-hexanoic acid hydroxyamide], the affinity, expressed as Ki, was 89800 nM. Consider `Cc1cc(N[C@H](CCCCNC(C)c2ccc(F)cc2)C(=O)NO)ccc1F` (stereo partly drawn) [Compound 168010, (R)-2-(4-Fluoro-3-methyl-phenylamino)-6-[1-(4-fluoro-phenyl)-ethylamino]-hexanoic acid hydroxyamide], for which the inhibitory constant (Ki) stood at 70 nM. `Cc1cc(N[C@H](CCCCNS(=O)(=O)c2ccc(C(=O)O)cc2)C(=O)NO)cc(C)c1F` [Compound 167613, (R)-4-[5-(4-Fluoro-3,5-dimethyl-phenylamino)-5-hydroxycarbamoyl-pentylsulfamoyl]-benzoic acid] displayed an inhibition constant (Ki) of 3660 nM. Molecule `Cc1cc(CN(CCCC[C@@H](Nc2ccc(F)c(C)c2)C(=O)NO)Cc2ccc(F)c(C)c2)ccc1F` [Compound 167966, (R)-6-[Bis-(4-fluoro-3-methyl-benzyl)-amino]-2-(4-fluoro-3-methyl-phenylamino)-hexanoic acid hydroxyamide] registered a Ki of 6700 nM. In turn, `Cc1cc(N[C@@H](C(=O)NO)C(C)C)ccc1F` [Compound 167267, (R)-2-(4-Fluoro-3-methyl-phenylamino)-N-hydroxy-3-methyl-butyramide hydrochloride] displayed a Ki of 15700 nM.

Regarding `Cc1cc(N[C@@H](C(=O)NO)C2CCCCC2)cc(C)c1F` [Compound 167424, (R)-2-Cyclohexyl-2-(4-fluoro-3,5-dimethyl-phenylamino)-N-hydroxy-acetamide], the Ki was found to be 790 nM. The molecule `CCCCC(Nc1ccc(F)c(C)c1)C(=O)NO` (centres unmarked) [Compound 167162, 2-(4-Fluoro-3-methyl-phenylamino)-hexanoic acid hydroxyamide] came in with a Ki of 2000 nM. As for `CCCCC(Nc1ccc(F)c(OC)c1)C(=O)NO` (centres unmarked) [Compound 167793, 2-(4-Fluoro-3-methoxy-phenylamino)-hexanoic acid hydroxyamide], the affinity corresponds to a Ki of 157000 nM. In turn, `Cc1cc(NC(C)C(=O)NO)ccc1F` (centres unmarked) [Compound 167235, 2-(4-Fluoro-3-methyl-phenylamino)-N-hydroxy-propionamide] displayed a Ki of 1400 nM.

As for `CCCCC(Nc1ccc(OC)cc1)C(=O)NO` (centres unmarked) [Compound 167275, 2-(4-Methoxy-phenylamino)-hexanoic acid hydroxyamide], the affinity, expressed as Ki, was 88100 nM.

For the molecule `Cc1cc(N[C@H](CCCCNC(=O)Cc2ccccc2)C(=O)NO)cc(C)c1F` [Compound 167588, (R)-2-(4-Fluoro-3,5-dimethyl-phenylamino)-6-phenylacetylamino-hexanoic acid hydroxyamide], the affinity, expressed as Ki, was 1200 nM. `Cc1cc(N[C@H](CCCCNS(=O)(=O)c2ccc(N(C)C)cc2)C(=O)NO)cc(C)c1F` [Compound 167699, (R)-6-(4-Dimethylamino-benzenesulfonylamino)-2-(4-fluoro-3,5-dimethyl-phenylamino)-hexanoic acid hydroxyamide] yielded a Ki of 430 nM.
